Assay results: US20240376120A1, “CAMPTOTHECIN COMPOUND, PREPARATION METHOD THEREFOR AND USE THEREOF” (priority 2021, published 2024)
Structures can show the parent of a compound that is named as a salt. Where two headings read alike, the source gives them in different places. Each block holds one compound with its values, some of them ahead of it.

Assays:
[1] = system: MDA-MB-435s cells (human melanoma cells); assay: MDA-MB-435s cell proliferation inhibitory assay (CellTiter-Glo); type: cell-based
Procedure: (§1) • 1). […] Resuspend an appropriate amount of cell suspension to 3000 cells/100 μL according to the count, mixed well and then put the corresponding number of cells into a 96-well plate by pipette. • 3). Each hole of the edge was sealed with 100 μL DPBS and put into an incubator for culture. • 4). Day 1 drug addition: Prepare the storage solution of the compound to be tested 1 hour in advance. 24 h after plating, the culture medium was gradiently diluted to a concentration twice the final concentration of each group. Take out the plated cells from the incubator and add 100 μL of the corresponding 2-fold concentration medium to each well by pipette. • 5). Day 1 detected: Take out an appropriate amount of CTG 1 h in advance and the plate was allowed to equilibrate at room temperature for 30 min. 100 μL of CTG was added to each well and shaken for 5 mins, and then standed in the dark for 5 mins, the luminescence value was detected by ELISA. • 6). Day 4 detection: Take an appropriate amount of CTG 1 h in advance and rewarm it at room temperature in the dark. At the same time, take out the plate to be tested from the incubator and leave it to equilibrate at room temperature for 30 minutes; 72 h after adding the drug, 100 μL of culture medium was sucked out with pipette carefully from each cell well, and 100 μL of CTG was added. The mixture was shaken for 5 min, and after equilibration in the dark for 5 min, the luminescence value was detected with ELISA. • 7). Analyze data and write detailed experimental records.
Collect data and convert it into survival rate: Inhibition rate (%)=(100−(OD value of compound−OD value on the first day)/(OD value of control well-OD value on the first day))×100%
(§2) Input the compound into graphpad prism to obtain the corresponding IC50 value.

in vitro = details: human, Caco-2
Procedure: (§3) Day 0 plated: After digesting the target cells in the logarithmic growth phase, make a single cell suspension and count. • 2). Took out the corresponding number of transwell chambers and placed them in a 24-well plate, added 200 μL PBS to the upper chamber, incubated for 10 mins, and removed the PBS from the upper chamber by pipette. • 3). According to the count, took an appropriate amount of cell suspension and resuspended it to 5000 cells/200 μL, mixed well and added it to the upper chamber of the transwell, and added 600 μL of complete culture medium to the lower chamber. • 4). medium exchanged on DAY1: The upper chamber and the lower chamber were exchanged with complete culture medium containing 0.1 mg/mL ascorbic acid for 9 days continuously, and the resistance value of membrane expansion was measured. […] Collected the liquid in the upper chamber and the lower chamber for detection. • 7). Calculated Papp according to the formula “Papp=dQ/(dt×A×C0)”. dQ/dt was the transport amount of drugs per unit time, which was the slope of the linear regression of cumulative drug release amount Q versus time t. A was the bottom area of the Transwell orifice plate membrane, and the bottom area was 0.33 cm^2 of 24-well plate in this experiment. Co was the initial concentration of drugs in the upper chamber (μg mL-1).

[2] = system: Caco-2 cells (human colorectal adenocarcinoma cells)
Procedure: as §3

[3] = system: MCF-7 cells (human breast cancer cells); assay: MCF-7 cell proliferation inhibitory assay (CellTiter-Glo); type: cell-based
Procedure: • 1). […] Resuspend an appropriate amount of cell suspension to 4000 cells/100 μL according to the count, mixed well and then put the corresponding number of cells into a 96-well plate by pipette. • 3). Each hole of the edge was sealed with 100 μL DPBS and put into an incubator for culture. • 4). Day 1 drug addition: Prepare the storage solution of the compound to be tested 1 hour in advance. 24 h after plating, the culture medium was gradiently diluted to a concentration twice the final concentration of each group. Take out the plated cells from the incubator and add 100 μL of the corresponding 2-fold concentration medium to each well by pipette.
Day 1 detected: Take out the plate to be tested and an appropriate amount of CTG in advance and rewarm it at room temperature in the dark. 50 μL of CTG was added to each well at 24 h. Shake with the oscillator for 5 minutes, and after balancing in the dark for 5 minutes, detect the luminescence value with a microplate reader; The mixture was shaken for 5 min, and after equilibration in the dark for 5 min, the luminescence value was detected with ELISA. • 6). Day 4 detection: Take an appropriate amount of CTG 1 h in advance and rewarm it at room temperature in the dark. At the same time, take out the plate to be tested from the incubator and leave it to equilibrate at room temperature for 30 minutes; 72 h after adding the drug, 100 μL of culture medium was sucked out with pipette carefully from each cell well, and 50 μL of CTG was added. The mixture was shaken for 5 min, and after equilibration in the dark for 5 min, the luminescence value was detected with ELISA analyzer. • 7). Data analysis and processed.
Collect data and convert it into survival rate: Inhibition rate (%)=(100−(OD value of compound-OD value on the first day)/(OD value of control well-OD value on the first day))×100%
as §2

[4] = system: MDA-MB-231 cells (human breast cancer cells); assay: MDA-MB-231 cell proliferation inhibitory assay (CellTiter-Glo); type: cell-based
Procedure: as §1, §2

[5] = Caco-2 cell membrane permeability assay; details: human, Caco-2
Procedure: as §3

[6] = system: Caco-2 cells (human colorectal adenocarcinoma cells); assay: Caco-2 cell membrane permeability assay; details: Caco-2 monolayer, apical to basolateral, 100 μg/mL, 180 min
Procedure: as §3

[7] = Homo sapiens, MDA-MB-435S, 72 h, read-out: Proliferation inhibition IC50
[8] = Homo sapiens, MCF7, 72 h, read-out: Proliferation inhibition IC50
[9] = Homo sapiens, MDA-MB-231, 72 h, read-out: Proliferation inhibition IC50

Structure (SMILES): CC[C@@]1(O)C(=O)OCc2c1cc1n(c2=O)Cc2c-1nc1cc(F)c(C)cc1c2[C@@H](C)N [Example 1]
- IC50 [1, 7]: 0.75 nM
- IC50 ([1]; Homo sapiens, MDA-MB-435S, read-out: MDA-MB-435s Proliferation inhibition IC50): 0.75 nM
- Papp A→B at 180 min, 100 μg/mL (in vitro): 100 ×10⁻⁶ cm/s
- Permeability compared with reference compounds (in words) [2]: obvious advantages over SN38 and exatecan
- IC50 [3, 8]: 5.2 nM
- IC50 ([3]; Homo sapiens, MCF7, read-out: MCF-7 Proliferation inhibition IC50): 5.2 nM
- IC50 [4, 9]: 8.2 nM
- IC50 ([4]; Homo sapiens, MDA-MB-231, read-out: MDA-MB-231 Proliferation inhibition IC50): 8.2 nM

Structure (SMILES): CC[C@@]1(O)C(=O)OCc2c1cc1n(c2=O)Cc2c-1nc1cc(F)c(C)c3c1c2[C@@H](N)CC3 [Compound B, Exatecan, reference compound]
- IC50 [1, 7]: 2.52 nM
- Papp A→B at 180 min, 100 μg/mL [5]: 68.6 ×10⁻⁶ cm/s
- IC50 [3, 8]: 5.5 nM
- IC50 [4, 9]: 30.9 nM

Structure (SMILES): CC[C@@]1(O)C(=O)OCc2c1cc1n(c2=O)Cc2c-1nc1cc(F)c(C)cc1c2[C@H](C)O [Example 12c]
- IC50 [1, 7]: 0.7 nM
- Papp A→B at 180 min, 100 μg/mL (in vitro): 96 ×10⁻⁶ cm/s
- Permeability compared with reference compounds (in words) [2]: obvious advantages over SN38 and exatecan
- IC50 [3, 8]: 3.5 nM
- IC50 [4, 9]: 6.6 nM

Structure (SMILES): CCc1c2c(nc3ccc(O)cc13)-c1cc3c(c(=O)n1C2)COC(=O)[C@]3(O)CC [SN38, reference compound]
- IC50 ([1]; MDA-MB-435s cells, 72 h after adding the drug, Table 3, read-out: Proliferation inhibition IC50): 6.89 nM
- Permeability Coefficient (Papp 10^−6 cm/s) A→B [6]: 46.8 10^−6 cm/s
- IC50 ([3]; MCF-7 cells, 72 h after adding the drug, Table 1, read-out: Proliferation inhibition IC50): 22.5 nM
- IC50 ([4]; MDA-MB-231 cells, 72 h after adding the drug, Table 2, read-out: Proliferation inhibition IC50): 124 nM

- Papp A→B at 180 min, 100 μg/mL [5]: 193 ×10⁻⁶ cm/s
Structure (SMILES): COCCc1ccc(OCC(O)CNC(C)C)cc1 (centres unmarked) [Metoprolol Tartrate]

Structure (SMILES): CC[C@@]1(O)C(=O)OCc2c1cc1n(c2=O)Cc2c-1nc1cc(F)c(C)c3c1c2[C@@H](NC(=O)CO)CC3 [Dxd, reference compound]
- IC50 [1, 7]: 5.12 nM
- Papp A→B at 180 min, 100 μg/mL [5]: 42 ×10⁻⁶ cm/s
- IC50 [3, 8]: 20.3 nM
- IC50 [4, 9]: 101 nM
